Results taken from patent EP0802730B1, “PESTICIDAL COMPOUNDS” (BTG INTERNATIONAL LIMITED, priority 1995, dated 1996).
Converted amounts (≈) assume the structure as drawn. Like-named read-outs stand apart in the source and are kept apart here.

How the values were obtained:
[1] = system: Mustard beetles (PC) (Phaedon cochleariae Fab); type: in vivo; settings: NA = lack of detectable activity; for PC (LD50): 1 µl acetone drop applied ventrally to adults, kill at 48 hours
Description: A one microlitre drop of an acetone solution of the test compound was applied ventrally to adult mustard beetles using a micro drop applicator. The treated insects were maintained for 48 hours after which time kill was assessed. Two replicates each of 20 to 25 mustard beetles were used at each dose level and 5 dose levels were treated comparably. LD50 values were calculated as for houseflies.

[2] = system: resistant whitefly (BT) (Bemisia tabaci), Ned 7; test: Whitefly vial test, resistant strain Ned 7; type: in vivo; settings: 48 h, read-out: BT (Ned 7) (LC50)
Description: Acetone solutions (0.100 ml) of the test compounds were placed in 10 ml glass vials and evaporated with rotation to deposit a film of the compound. Thirty adult whiteflies were placed inside the vial, then after 60 minutes, the treated insects were transferred onto untreated cotton leaf discs which were kept moist on a bed of agar gel. The temperature was maintained at 25°C and mortality assessed after 48 hours. Three replicates were used at each of 5 to 7 dose levels per compound. LC50 values (ppm solution) were calculated by using a computer software package ("Polo-PC available from LeOra Software, Berkeley, California) (See M.R. Cahill and B. Hackett in Proceedings Brighton Crop Protection Conference, 1992). The test was carried out using a susceptible strain of whitefly (SUD-S) which was collected in Sudan in 1978 from cotton.
The test of Example 16 (BT (SUD-S)) was repeated using a resistant strain of whitefly (Ned 7). The Ned 7 strain was collected in the Netherlands in April, 1993 from hibiscus by J. Fransen and is highly resistant to organophosphate and carbamate insecticides and the insect growth regulator buprofezin.

[3] = system: Mites (TU) (Tetranychus urticae), susceptible strain (GSS); test: Mite immersion test, susceptible strain GSS; type: in vivo
Description: 25 adult female mites were immersed in 35 µl of a solution of the test compound in a 1:4 acetone-water mixture for 30 seconds. The treated insects were maintained at 21° ± 2°C and kill was assessed 72 hours after treatment. […] Three replicates of 25 mites each were used at each dose rate and 5 or 6 dose rates were used per compound under test. LC50 values were calculated in ppm of the solution of the test compound per insect. The test was carried out using a susceptible strain of mites (GSS) supplied by Schering, AG, Berlin.

[4] = system: Houseflies (MD) (Musca domestica); type: in vivo
Description: Female flies were treated on the thorax with a one microlitre drop of test compound dissolved in acetone. Two replicates of 15 flies were used at each dose rate and 6 dose rates were used per compound under test. After treatment, the flies were maintained at a temperature of 20° ± 1°C and kill was assessed 24 and 48 hours after treatment. LD50 values were calculated in micrograms of test compound per fly (see Sawicki et al., Bulletin of the World Health Organisation, 35, 893 (1966) and Sawicki et al., Entomologia and Exp. Appli 10, 253, (1967).

[5] = system: Whitefly (BT) (Bemisia tabaci), susceptible strain (SUD-S); test: Whitefly residual film vial test, susceptible strain SUD-S; type: in vivo
Description: Acetone solutions (0.100 ml) of the test compounds were placed in 10 ml glass vials and evaporated with rotation to deposit a film of the compound. Thirty adult whiteflies were placed inside the vial, then after 60 minutes, the treated insects were transferred onto untreated cotton leaf discs which were kept moist on a bed of agar gel. The temperature was maintained at 25°C and mortality assessed after 48 hours. Three replicates were used at each of 5 to 7 dose levels per compound.

[6] = system: Myzus persicae, susceptible strain (US1L); test: Aphid dip test, susceptible strain; type: in vivo
Description: Activity against resistant (R) and susceptible (S) strains of aphid (Myzus persicae) was assessed using the following method.
Entrapment rings of fluon were painted halfway up the inside of 4 cm lengths of glass tubing (1.5 cm diameter), and squares of insect-proof gauze were attached to one end of each tube by elastic bands. Fifteen apterous adults were then gently transferred into the tubes using a sable-hair brush, and the tube sealed with a second gauze square.
Tubes containing aphids were dipped into insecticide solutions for 10 seconds, dried on blotting paper, and then inverted and tapped to cause treated aphids to fall to the unimmersed end of each tube. Handling mortality (usually zero or very slight) was scored after 1 hour, when aphids were transferred onto chinese cabbage leaf-discs (35 mm diameter) on an agar bed (25 mm in depth) in disposible plastic containers (30 mm high) and confined by applying a ring of fluon to the exposed lip of the container. Containers were store upright, without lids, in a constant environment facility maintained at 25°C under continuous room lighting. Mortality was assessed at 24, 48 and 72 hours. Two replicates of 15 aphids each were used at each dose rate and 5 or 6 dose rates were used per compound under test.
The test was carried out using a susceptible strain of aphids (US1L) collected in the field in East Anglia, UK and an extremely resistant strain of aphids (794Jz) (R3 esterase, sensitive AChE) collected from glasshouses in the UK.
The values given are % mortality corrected for control data. The control comprised the test solution without active ingredient.

[7] = system: Aspergillus niger; test: Fungitoxicity in vitro on potato dextrose agar; type: cell-based; settings: A. niger; 100 mg 1^-1; 4 days
[8] = system: Pyricularia oryzae (=Magnaporthe grisea); type: cell-based; settings: P. oryzae; 100 mg 1^-1; 7 days
[9] = Mammalian toxicity, whole body LD50; settings: rat, in vivo; rats
Source text: In addition to the specific insecticidal and acaricidal tests described above, compounds of the present invention were submitted for further tests relating to toxicity to mammals and so-called friendly species such as Chrysloperla carnea, Aleochora bilineata and Coccinella septempunctata.

[10] = system: Rhizoctonia solani; test: Fungitoxicity in vitro on potato dextrose agar; type: cell-based; settings: R. solani; 100 mg 1^-1; 4 days
[11] = ppm solution of test compound, 30 seconds immersion, kill at 72 hours, read-out: TU(GSS) (LC50)
[12] = ppm solution of test compound, 60 minutes film exposure, mortality after 48 hours, read-out: BT(SUD-S) (LC50)

## CCCCCCCCCCCCC1=C(OC(C)=O)C(=O)c2ccccc2C1=O [Compound A, 2-n-dodecyl-3-ethanoyloxynaphthalene-1,4-dione, reference compound]
[1]
  PC (LD50): 0.36 µg/insect
[2]
  LC50: 470 µg/mL (≈ 1220 µM)
[3]; [11]
  LC50: 64 µg/mL (≈ 166 µM)
[4]; topical 1 µl drop in acetone on female flies, kill assessed 24 and 48 hours
  MD (LD50): >> 20 µg/insect
[5]; [12]
  LC50: 82 µg/mL (≈ 213 µM)

## C=CC(C)(C)C1=C(OC(=O)CCC)C(=O)c2ccccc2C1=O [Example 5]
[1]
  PC (LD50): 6.9 µg/insect
[2]; resistant strain Ned 7, ppm solution of test compound
  LC50: 21 µg/mL (≈ 67.2 µM)
[3]; [11]
  LC50: 84 µg/mL (≈ 269 µM)
[5]; [12]
  LC50: 13 µg/mL (≈ 41.6 µM)

## CC1(C2=C(O)C(=O)c3ccccc3C2=O)CCCCC1 [Example 25, 2-hydroxy-3-(1'-methylcyclohexyl)-naphthalene-1,4-dione]
[6]; read-out: MP % kill 100 ppm
  mortality at 100 ppm: 22%
[6]; strain S, 100 PPM, read-out: % mortality corrected for control data
  mortality at 100 ppm: 23%
[6]; strain S, 250 PPM, read-out: % mortality corrected for control data
  mortality at 250 ppm: 67%
[1]; Tables 10, 13, 14
  PC LD50 (µg/insect): 5 µg/insect
[7]
  % inhibition of growth in colony diameter in agar plates, Activity at 100 mg 1^-1: 45%
[8]
  % inhibition of growth in colony diameter in agar plates, Activity at 100 mg 1^-1: 94%
[9]
  LD50: 2790 mg/kg
[3]; 72 h, Tables 10, 13, 14, susceptible strain, NA = lack of detectable activity, read-out: TU LC50 (ppm/insect)
  LC50: 28 µg/mL (≈ 104 µM)
[10]
  % inhibition of growth in colony diameter in agar plates, Activity at 100 mg 1^-1: 93%
[4]; Tables 10, 13, 14, NA = lack of detectable activity
  MD LD50 (µg/insect): 1.9 µg/insect
[5]; 48 h, Tables 10, 13, 14, susceptible strain, NA = lack of detectable activity, read-out: BT LC50 (ppm/insect)
  LC50: 0.1 µg/mL (≈ 0.37 µM)
